Laboratory results: PubChem BioAssay AID2060623 (Molecular Pharmacology Branch, DTP, NCI, 2025)

Test system: 227483-062-R1-J1-PDC complex spheroids with HUVEC/MSC, viability
Assay: Anticancer human tumor 227483-062-R1-J1-PDC patient-derived pancreatic carcinoma cell line growth inhibition [CLK]
Details: for IC50: curve of first compound; for viability, T/C: stronger effect = lower value
In short: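 Patient-derived tumor cells grown as complex spheroids with HUVEC endothelial cells and mesenchymal stem cells, treated with drug combinations. Concentrations descend in half-log steps from near clinical Cmax, or from 10 microM if Cmax unknown.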

[1] = second compound 0.0316 µM, first compound 0.0316 µM
[2] = second compound 0.0316 µM, first compound 0.1 µM
[3] = second compound 0.0316 µM, first compound 0.316 µM
[4] = second compound 0.0316 µM, first compound 1 µM
[5] = second compound 0.1 µM, first compound 0.0316 µM
[6] = second compound 0.1 µM, first compound 0.1 µM
[7] = second compound 0.1 µM, first compound 0.316 µM
[8] = second compound 0.1 µM, first compound 1 µM
[9] = second compound 0.316 µM, first compound 0.0316 µM
[10] = second compound 0.316 µM, first compound 0.1 µM
[11] = second compound 0.316 µM, first compound 0.316 µM
[12] = second compound 0.316 µM, first compound 1 µM
[13] = second compound 1 µM, first compound 0.0316 µM
[14] = second compound 1 µM, first compound 0.1 µM
[15] = second compound 1 µM, first compound 0.316 µM
[16] = second compound 1 µM, first compound 1 µM
[17] = second compound 3.16 µM, first compound 0.0316 µM
[18] = second compound 3.16 µM, first compound 0.1 µM
[19] = second compound 3.16 µM, first compound 0.316 µM
[20] = second compound 3.16 µM, first compound 1 µM
[21] = second compound 10 µM, first compound 0.0316 µM
[22] = second compound 10 µM, first compound 0.1 µM
[23] = second compound 10 µM, first compound 0.316 µM
[24] = second compound 10 µM, first compound 1 µM
[25] = second compound 0.0316 µM, first compound 0.00316 µM
[26] = second compound 0.0316 µM, first compound 0.01 µM
[27] = second compound 0.1 µM, first compound 0.00316 µM
[28] = second compound 0.1 µM, first compound 0.01 µM
[29] = second compound 0.316 µM, first compound 0.00316 µM
[30] = second compound 0.316 µM, first compound 0.01 µM
[31] = second compound 1 µM, first compound 0.00316 µM
[32] = second compound 1 µM, first compound 0.01 µM
[33] = second compound 3.16 µM, first compound 0.00316 µM
[34] = second compound 3.16 µM, first compound 0.01 µM
[35] = second compound 10 µM, first compound 0.00316 µM
[36] = second compound 10 µM, first compound 0.01 µM
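Further: spheroids exposed to compounds for seven days before readout.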
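Wherever viability, T/C is given: percent of DMSO vehicle control luminescence as 100% viability.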

Q: With `CC(=O)O[C@H]1C(=O)[C@@]2(C)[C@H]([C@H](OC(=O)c3ccccc3)[C@]3(O)C[C@H](OC(=O)[C@H](O)[C@@H](NC(=O)c4ccccc4)c4ccccc4)C(C)=C1C3(C)C)[C@]1(OC(C)=O)CO[C@@H]1C[C@@H]2O` + CNC(=O)c1ccc(Nc2nc(OC3CCCC3)c3c(-c4ccc5nc(C)oc5c4)c[nH]c3n2)c(OC)c1 as the molecule, how does the IC50 (second compound 0.0316 µM) read?
A: < 31.6 nM

Q: What about the IC50 (second compound 0.1 µM) of the same molecule?
A: > 10000 nM

Q: And the IC50 (second compound 0.316 µM)?
A: > 10000 nM

Q: And the IC50 (second compound 1 µM)?
A: > 10000 nM

Q: And the IC50 (second compound 3.16 µM)?
A: < 31.6 nM

Q: What about the IC50 (second compound 10 µM) of the same molecule?
A: < 31.6 nM

Q: What about the viability, T/C [1] of the same molecule?
A: 29.7%

Q: What about the viability, T/C [2] of the same molecule?
A: 27.1%

Q: And the viability, T/C [3]?
A: 35.6%

Q: And the viability, T/C [4]?
A: 43.4%

Q: And the viability, T/C (second compound 0.0316 µM, first compound 3.16 µM)?
A: 48.3%

Q: And the viability, T/C (second compound 0.0316 µM, first compound 10 µM)?
A: 75.9%

Q: And the viability, T/C [5]?
A: 53.8%

Q: What about the viability, T/C [6] of the same molecule?
A: 62.1%

Q: And the viability, T/C [7]?
A: 71.1%

Q: And the viability, T/C [8]?
A: 85.1%

Q: And the viability, T/C (second compound 0.1 µM, first compound 3.16 µM)?
A: 77.1%

Q: What about the viability, T/C (second compound 0.1 µM, first compound 10 µM) of the same molecule?
A: 101%

Q: What about the viability, T/C [9] of the same molecule?
A: 70.4%

Q: And the viability, T/C [10]?
A: 95.6%

Q: What about the viability, T/C [11] of the same molecule?
A: 98.9%

Q: What about the viability, T/C [12] of the same molecule?
A: 101%

Q: And the viability, T/C (second compound 0.316 µM, first compound 3.16 µM)?
A: 99.3%

Q: And the viability, T/C (second compound 0.316 µM, first compound 10 µM)?
A: 95.8%

Q: What about the viability, T/C [13] of the same molecule?
A: 60.8%

Q: What about the viability, T/C [14] of the same molecule?
A: 69.2%

Q: What about the viability, T/C [15] of the same molecule?
A: 72.7%

Q: What about the viability, T/C [16] of the same molecule?
A: 101%

Q: What about the viability, T/C (second compound 1 µM, first compound 3.16 µM) of the same molecule?
A: 96.7%

Q: What about the viability, T/C (second compound 1 µM, first compound 10 µM) of the same molecule?
A: 89.4%

Q: And the viability, T/C [17]?
A: 46.7%

Q: And the viability, T/C [18]?
A: 58.9%

Q: And the viability, T/C [19]?
A: 62.9%

Q: And the viability, T/C [20]?
A: 61.5%

Q: And the viability, T/C (second compound 3.16 µM, first compound 3.16 µM)?
A: 70.1%

Q: What about the viability, T/C (second compound 3.16 µM, first compound 10 µM) of the same molecule?
A: 54.6%

Q: What about the viability, T/C [21] of the same molecule?
A: 37.9%

Q: What about the viability, T/C [22] of the same molecule?
A: 49.9%

Q: What about the viability, T/C [23] of the same molecule?
A: 50.3%

Q: What about the viability, T/C [24] of the same molecule?
A: 61.4%

Q: What about the viability, T/C (second compound 10 µM, first compound 3.16 µM) of the same molecule?
A: 49.5%

Q: What about the viability, T/C (second compound 10 µM, first compound 10 µM) of the same molecule?
A: 55.5%

Q: Which IC50 (second compound 0.0316 µM) does the source give for `COc1c(OCCCN2CCOCC2)ccc2c3n(c(=NC(=O)c4cnc(N)nc4)nc12)CCN3` + CNC(=O)c1ccc(Nc2nc(OC3CCCC3)c3c(-c4ccc5nc(C)oc5c4)c[nH]c3n2)c(OC)c1 here?
A: > 1000 nM

Q: And the IC50 (second compound 0.1 µM)?
A: 80.7 nM

Q: What about the IC50 (second compound 0.316 µM) of the same molecule?
A: 61.2 nM

Q: And the IC50 (second compound 1 µM)?
A: 10.6 nM

Q: And the IC50 (second compound 3.16 µM)?
A: 4.26 nM

Q: And the IC50 (second compound 10 µM)?
A: < 3.16 nM

Q: What about the viability, T/C [25] of the same molecule?
A: 94.9%

Q: What about the viability, T/C [26] of the same molecule?
A: 93.6%

Q: And the viability, T/C [1]?
A: 79.5%

Q: What about the viability, T/C [2] of the same molecule?
A: 69%

Q: What about the viability, T/C [3] of the same molecule?
A: 70%

Q: And the viability, T/C [4]?
A: 51.2%

Q: And the viability, T/C [27]?
A: 96%

Q: And the viability, T/C [28]?
A: 89.5%

Q: And the viability, T/C [5]?
A: 56.2%

Q: And the viability, T/C [6]?
A: 58.7%

Q: And the viability, T/C [7]?
A: 44.1%

Q: And the viability, T/C [8]?
A: 41%

Q: What about the viability, T/C [29] of the same molecule?
A: 87.4%

Q: And the viability, T/C [30]?
A: 55.1%

Q: And the viability, T/C [9]?
A: 59.8%

Q: And the viability, T/C [10]?
A: 52.2%

Q: What about the viability, T/C [11] of the same molecule?
A: 37.9%

Q: What about the viability, T/C [12] of the same molecule?
A: 32.2%

Q: And the viability, T/C [31]?
A: 55.9%

Q: What about the viability, T/C [32] of the same molecule?
A: 56.7%

Q: And the viability, T/C [13]?
A: 39.9%

Q: And the viability, T/C [14]?
A: 32.2%

Q: And the viability, T/C [15]?
A: 26.3%

Q: And the viability, T/C [16]?
A: 20.6%

Q: What about the viability, T/C [33] of the same molecule?
A: 50.3%

Q: What about the viability, T/C [34] of the same molecule?
A: 48.3%

Q: And the viability, T/C [17]?
A: 34.9%

Q: What about the viability, T/C [18] of the same molecule?
A: 22.3%

Q: What about the viability, T/C [19] of the same molecule?
A: 18.4%

Q: And the viability, T/C [20]?
A: 14.8%

Q: What about the viability, T/C [35] of the same molecule?
A: 43.1%

Q: What about the viability, T/C [36] of the same molecule?
A: 36.9%

Q: And the viability, T/C [21]?
A: 30.3%

Q: What about the viability, T/C [22] of the same molecule?
A: 21.2%

Q: And the viability, T/C [23]?
A: 18%

Q: What about the viability, T/C [24] of the same molecule?
A: 16.3%

Q: For `CCN1CCN(Cc2ccc(Nc3ncc(F)c(-c4cc(F)c5nc(C)n(C(C)C)c5c4)n3)nc2)CC1` + CN1CCN(c2cc(C(=O)Nc3cc4cc(-c5cnn(C)c5)ccc4cn3)ccn2)CC1, which IC50 (second compound 0.0316 µM) is on record?
A: > 1000 nM

Q: And the IC50 (second compound 0.1 µM)?
A: > 1000 nM

Q: And the IC50 (second compound 0.316 µM)?
A: < 3.16 nM

Q: What about the IC50 (second compound 1 µM) of the same molecule?
A: < 3.16 nM

Q: And the IC50 (second compound 3.16 µM)?
A: < 3.16 nM

Q: And the IC50 (second compound 10 µM)?
A: < 3.16 nM

Q: And the viability, T/C [25]?
A: 97.5%

Q: And the viability, T/C [26]?
A: 93.4%

Q: What about the viability, T/C [1] of the same molecule?
A: 101%

Q: And the viability, T/C [2]?
A: 93.4%

Q: What about the viability, T/C [3] of the same molecule?
A: 87.6%

Q: And the viability, T/C [4]?
A: 72.4%

Q: And the viability, T/C [27]?
A: 65.8%

Q: And the viability, T/C [28]?
A: 64.7%

Q: And the viability, T/C [5]?
A: 64.5%

Q: What about the viability, T/C [6] of the same molecule?
A: 72.9%

Q: And the viability, T/C [7]?
A: 72.6%

Q: What about the viability, T/C [8] of the same molecule?
A: 52%

Q: And the viability, T/C [29]?
A: 6.05%

Q: What about the viability, T/C [30] of the same molecule?
A: 8.49%

Q: And the viability, T/C [9]?
A: 8.54%

Q: And the viability, T/C [10]?
A: 9.66%

Q: What about the viability, T/C [11] of the same molecule?
A: 13%

Q: And the viability, T/C [12]?
A: 6.42%

Q: And the viability, T/C [31]?
A: 1.57%

Q: What about the viability, T/C [32] of the same molecule?
A: 2.07%

Q: What about the viability, T/C [13] of the same molecule?
A: 2.83%

Q: What about the viability, T/C [14] of the same molecule?
A: 2.75%

Q: And the viability, T/C [15]?
A: 4.4%

Q: And the viability, T/C [16]?
A: 5.61%

Q: What about the viability, T/C [33] of the same molecule?
A: 3.72%

Q: And the viability, T/C [34]?
A: 6.23%

Q: And the viability, T/C [17]?
A: 5.4%

Q: And the viability, T/C [18]?
A: 5.18%

Q: And the viability, T/C [19]?
A: 4.88%

Q: And the viability, T/C [20]?
A: 8.09%

Q: What about the viability, T/C [35] of the same molecule?
A: 3.9%

Q: And the viability, T/C [36]?
A: 2.79%

Q: What about the viability, T/C [21] of the same molecule?
A: 4.22%

Q: And the viability, T/C [22]?
A: 4.63%

Q: And the viability, T/C [23]?
A: 2.76%

Q: And the viability, T/C [24]?
A: 2.39%
